Test results: patent US9682060B2, “Small molecules that induce intrinsic pathway apoptosis” (The Board of Trustees of the University of Illinois, priority 2015, dated 2017)

Experiments:
BT-549 = assay: Raptinal toxicity, 24 hour IC50 (sulforhodamine B assay for adherent cells); type: cell-based; settings: BT-549 (Human Breast Cancer); 24 hour incubation; mean ± SD
Method: (§1) Sulforhodamine B Assay for Adherent Cells.
(§2) Serial dilutions of compound in 100% DMSO were added in triplicate (2 μL to each well) to empty wells of a 96-well plate. Adherent cells (3T3, Hs888Lu, MCF-7, HeLa, WT-MEF, 4T1, B16-F10, SK-MEL-5, MIA PaCa2, BT-549, MDA-MB-436, 143B, HOS, H460, H1993) cells were added to each well (5×10^3 cells in 198 μL of RPMI 1640, DMEM or EMEM media). The plates were incubated for 24 hours. The media was removed from the plate and ice-cold trichloroacetic acid (100 μL of 10% w/v trichloroacetic acid) was added to the plates which were then incubated at 4° C. overnight to fix the cells. The trichloroacetic acid was removed and the wells washed with 200 μL of de-ionized water 5 times. Sulforhodamine B (200 μL of 0.04% sodium salt dissolved in 1% acetic acid) was added to each well and the plates incubated at room temperature for 30 min. Excess sulforhodamine B was removed by washing the plates 5 times with 1% acetic acid. The bound dye was released by the addition of unbuffered Tris-base (200 μL of 10 mM solution) and after a 30 min incubation at room temperature the absorbance at 510 nm was measured (Molecular Devices SpectraMax Plus 384 plate reader). The mean IC50 values and standard deviations were determined from three independent experiments.

HeLa = assay: as above; type: cell-based; settings: HeLa (Human Cervical Cancer); 24 hour incubation; mean ± SD
Method: as §1, §2

B16-F10 = assay: as above; type: cell-based; settings: B16-F10 (Mouse Melanoma); 24 hour incubation; mean ± SD
Method: as §1, §2

MIA PaCa-2 = assay: as above; type: cell-based; settings: MIA PaCa-2 (Human Pancreatic Cancer); 24 hour incubation; mean ± SD
Method: as §1, §2

H1993 = assay: as above; type: cell-based; settings: NCI-H1993; H1993 (Human Lung Cancer); 24 hour incubation; mean ± SD
Method: as §1, §2

SK-MEL-5 = assay: as above; type: cell-based; settings: SK-MEL-5 (Human Melanoma); 24 hour incubation; mean ± SD
Method: as §1, §2

4T1 = assay: as above; type: cell-based; settings: 4T1 (Mouse Breast Cancer); 24 hour incubation; mean ± SD
Method: as §1, §2

MDA-MB-436 = assay: as above; type: cell-based; settings: MDA-MB-436 (Human Breast Cancer); 24 hour incubation; mean ± SD
Method: as §1, §2

Hs888Lu = assay: as above; type: cell-based; settings: Hs888Lu (Human lung fibroblast); 24 hour incubation; mean ± SD
Method: as §1, §2

143B = assay: as above; type: cell-based; settings: 143B (Human Osteosarcoma); 24 hour incubation; mean ± SD
Method: as §1, §2

H460 = assay: as above; type: cell-based; settings: NCI-H460; H460 (Human Lung Cancer); 24 hour incubation; mean ± SD
Method: as §1, §2

HOS = assay: as above; type: cell-based; settings: HOS (Human Osteosarcoma); 24 hour incubation; mean ± SD
Method: as §1, §2

MCF-7 = assay: as above; type: cell-based; settings: MCF7; MCF-7 (Human Breast Cancer); 24 hour incubation; mean ± SD
Method: as §1, §2

3T3 = assay: as above; type: cell-based; settings: NIH3T3; 3T3 (Mouse Embryonic Fibroblasts); 24 hour incubation; mean ± SD
Method: as §1, §2

WT-MEF = assay: as above; type: cell-based; settings: Fibroblast; WT-MEF (Mouse Embryonic Fibroblasts); 24 hour incubation; mean ± SD
Method: as §1, §2

[1] = system: adherent cell lines (HOS, H1993, SK-MEL-5, MIA PaCa-2); assay: Adherent cell lines: cell death by AV/PI staining and immunoblots; type: cell-based, Human; settings: HOS, H1993, SK-MEL-5, MIA PaCa-2, 10 μM
U-937 cells = assay: Immunoblotting of caspase activation and PARP-1 cleavage; type: cell-based, Human; settings: 10 μM
Method: U-937 cells (3×10^6 cells in 2 mL RPMI) or SKW 6.4 cells (5×10^6 cells in 2 mL RPMI) were treated with compound (1% final DMSO v/v) for the appropriate period of time. After centrifugation and washing with PBS, cells were lysed with RIPA lysis buffer containing protease cocktail inhibitor III (Calbiochem) and cell debris removed by centrifugation (16000×g 5 min). The lysate concentrations were normalized after determination of protein concentration by the Bradford assay and whole cell lysate (40-60 μg) was resolved by 4-20% gradient SDS-PAGE gel electrophoresis at 120 V for 70 min after which proteins were transferred onto PVDF membranes (60 V for 2 hours) and blocked in 5% BSA or fat-free milk in TBST (as per primary antibody manufacturer's instructions) overnight at 4° C. The membranes were blotted for molecules of interest with primary antibody (1:1000 in 5% BSA or milk in TBST) overnight at 4° C. The bound primary antibodies were detected using appropriate secondary HRP conjugated antibodies (1:5000 in TBST) for 1 hour at room temperature and visualized by ECL autoradiography or with an Image Quant LAS 4010. The membranes were stripped in acidic methanol, blocked and re-probed as necessary.
Induction of Necroptosis and Observation of Phospho-MLKL by Immunoblot.
[…]. Cells were then treated with TNFα (10 ng/ml) in the presence of cycloheximide (20 μg/ml) for (1% final DMSO v/v) for the appropriate period of time. After centrifugation and washing with PBS, cells were lysed with RIPA lysis buffer containing protease cocktail inhibitor III (Calbiochem) and Phosphatase Inhibitor IV (BioVision). Samples were further processed for immunblot analysis as described above.

Work on `O=CC1(C2(C=O)c3ccccc3-c3ccccc32)c2ccccc2-c2ccccc21` [Raptinal, [9,9′]bifluorenyl-9,9′-dicarbaldehyde] yielded an IC50 (BT-549) of 1.3 ± 0.4 µM, an IC50 (HeLa) of 0.6 ± 0.4 µM and an IC50 (B16-F10) of 1.6 ± 0.2 µM. The IC50 (MIA PaCa-2) was 1.9 ± 0.8 µM, the IC50 (H1993) was 1.2 ± 0.1 µM and the IC50 (SK-MEL-5) was 0.7 ± 0.1 µM. The IC50 (4T1) was 1 ± 0.2 µM, the IC50 (MDA-MB-436) was 1.1 ± 0.1 µM and the IC50 (Hs888Lu) was 1.7 ± 0.1 µM. The IC50 (143B) was 1.2 ± 0.5 µM, the IC50 (H460) was 1.1 ± 0.1 µM and the IC50 (HOS) was 1 ± 0.1 µM. It also gave an IC50 (MCF-7) of 3.4 ± 0.1 µM, an IC50 (3T3) of 1 ± 0.2 µM and an IC50 (WT-MEF) of 2.4 ± 0.7 µM. The “speed of cell death induction versus 1541B and staurosporine” value ([1]; AV/PI) was “substantially faster than the other agents”, the “procaspase-3 activation and PARP-1 cleavage within 2 hours” value ([1]; immunoblots) was “the only agent capable of activating procaspase-3 and inducing subsequent PARP-1 cleavage within 2 hours” and the “time of activation of initiator caspase-9” value (U-937 cells) was 20 min. For the same molecule, the “time to complete cleavage of procaspase-9, procaspase-8 and procaspase-3” value (U-937 cells) was ≤ 45 min, the “cleavage of procaspase-1 (pyroptosis/pyronecrosis)” value (U-937 cells; Western blot) was “neither” and the “activation of procaspase-3 to caspase-3 (immunoblot)” value (U-937 cells; one hour treatment) was “complete activation”. For the same molecule, the “cleavage of PARP-1 (116 to 89 kDa form)” value (U-937 cells; one hour, versus the other toxins) was “Significantly more abundant cleavage”.
